# Source: patent US7842279B2, “F-18 peptides for pre targeted positron emission tomography imaging” (Immunomedics, Inc., priority 2005, dated 2010)
# Tested on: LS174T human colon adenocarcinoma
# Experiment: PET imaging of human colon cancer tissue in nude mice
# Format: in vivo
# Conditions: female athymic nu/nu mice, s.c. LS174T xenograft, 20 μCi i.v.
# Experimental: A humanized MN-14 IgG antibody is prepared as described in U.S. Pat. No. 6,676,924. ^18F-labeled bisulfite addition complex is prepared as described in Example 8 and is linked to the humanized MN-14 IgG by reductive amination with sodium cyanoborohydride using standard techniques (see, e.g., Gray, 1978, Meth. Enzymol. 50:155-160.). Alternatively, an antibody or antibody fragment is directly labeled with [^18F]Fluorobenzaldehyde in the presence of hydroxylamine, thiosemicarbazide or hydrazine. Gel-permeation column chromatography is used to separated the 4-[^18F]Fluorobenzaldehyde/hMN-14 immunoconjugate from unconjugated 4-[^18F]Fluorobenzaldehyde bisulfite addition complex. The 4-[^18F]Fluorobenzaldehyde/hMN-14 immunoconjugate is used to localize human colon cancer tissue in nude mice. At 4-5 weeks female athymic mice (nu/nu, Harlan, Indianapolis, Ind.) are injected s.c. with 0.2 ml of a 10% suspension of LS174T human colon adenocarcinoma prepared from a xenograft serially propagated in an athymic mouse (Sharkey et al., Cancer Res., 50: 828-34 (1990)). After waiting 2 weeks for tumor development, the mice are injected i.v. with 20 μCi of 4-[^18F]Fluorobenzaldehyde/hMN-14 immunoconjugate. Tumor tissue is imaged by PET imaging, using standard ^18F detection methods.
substance,measurement,value
4-[^18F]Fluorobenzaldehyde/hMN-14 immunoconjugate,tumor detection by PET imaging (F-18 distribution),detected as hot spots of F-18 distribution against a low-level background of F-18
